# Assay: Recovery rate of zinc bacitracin in various feeds on storage at ambient temperature
# Format: physicochemical
# Conditions: initial 1,000 ppm = 100%
# Text: Stabilization of the active substance zinc bacitracin is achieved with the process according to the invention.
substance,measurement,setting,value
zinc bacitracin [Untreated control],Recovery rate of zinc bacitracin (ZBA) in %,"meal feed 2.16 mineral supplement, 1.5 weeks",94.6%
same,Recovery rate of zinc bacitracin (ZBA) in %,"meal feed 2.16 mineral supplement, 4 weeks",91.2%
same,Recovery rate of zinc bacitracin (ZBA) in %,"meal feed 2.16 mineral supplement, 6 weeks",68.5%
same,Recovery rate of zinc bacitracin (ZBA) in %,"meal feed 2.16 mineral supplement, 8 weeks",73.7%
same,Recovery rate of zinc bacitracin (ZBA) in %,"meal feed 2.6 complete feed for fattening pigs, 1.5 weeks",116.4%
same,Recovery rate of zinc bacitracin (ZBA) in %,"meal feed 2.6 complete feed for fattening pigs, 4 weeks",107.6%
same,Recovery rate of zinc bacitracin (ZBA) in %,"meal feed 2.6 complete feed for fattening pigs, 6 weeks",93.1%
same,Recovery rate of zinc bacitracin (ZBA) in %,"meal feed 2.6 complete feed for fattening pigs, 8 weeks",83.3%
same,Recovery rate of zinc bacitracin (ZBA) in %,"meal feed 7.4 complete feed for fattening chicks, 1.5 weeks",89.8%
same,Recovery rate of zinc bacitracin (ZBA) in %,"meal feed 7.4 complete feed for fattening chicks, 4 weeks",82.9%
same,Recovery rate of zinc bacitracin (ZBA) in %,"meal feed 7.4 complete feed for fattening chicks, 6 weeks",66.2%
same,Recovery rate of zinc bacitracin (ZBA) in %,"meal feed 7.4 complete feed for fattening chicks, 8 weeks",51.9%
same,Recovery rate of zinc bacitracin (ZBA) in %,"meal feed 7.7 complete feed for laying hens, 1.5 weeks",96.5%
same,Recovery rate of zinc bacitracin (ZBA) in %,"meal feed 7.7 complete feed for laying hens, 4 weeks",98.8%
same,Recovery rate of zinc bacitracin (ZBA) in %,"meal feed 7.7 complete feed for laying hens, 6 weeks",86.4%
same,Recovery rate of zinc bacitracin (ZBA) in %,"meal feed 7.7 complete feed for laying hens, 8 weeks",80.4%
same,Recovery rate of zinc bacitracin (ZBA) in %,"pellet feed 2.6 complete feed for fattening pigs, 1.5 weeks",90.5%
same,Recovery rate of zinc bacitracin (ZBA) in %,"pellet feed 2.6 complete feed for fattening pigs, 4 weeks",75.7%
same,Recovery rate of zinc bacitracin (ZBA) in %,"pellet feed 2.6 complete feed for fattening pigs, 6 weeks",48.8%
same,Recovery rate of zinc bacitracin (ZBA) in %,"pellet feed 2.6 complete feed for fattening pigs, 8 weeks",40.8%
same,Recovery rate of zinc bacitracin (ZBA) in %,"pellet feed 7.4 complete feed for fattening chicks, 1.5 weeks",67.5%
same,Recovery rate of zinc bacitracin (ZBA) in %,"pellet feed 7.4 complete feed for fattening chicks, 4 weeks",40.2%
same,Recovery rate of zinc bacitracin (ZBA) in %,"pellet feed 7.4 complete feed for fattening chicks, 6 weeks",24.9%
same,Recovery rate of zinc bacitracin (ZBA) in %,"pellet feed 7.4 complete feed for fattening chicks, 8 weeks",21.4%
same,Recovery rate of zinc bacitracin (ZBA) in %,"pellet feed 7.7 complete feed for laying hens, 1.5 weeks",81.5%
same,Recovery rate of zinc bacitracin (ZBA) in %,"pellet feed 7.7 complete feed for laying hens, 4 weeks",65.8%
same,Recovery rate of zinc bacitracin (ZBA) in %,"pellet feed 7.7 complete feed for laying hens, 6 weeks",51.1%
same,Recovery rate of zinc bacitracin (ZBA) in %,"pellet feed 7.7 complete feed for laying hens, 8 weeks",42.4%

# From patent publication US5750135A, “Stabilized feed additive and process for the preparation thereof” (Boehringer Ingelheim Vetmedica GmbH, priority 1987, dated 1998)
